According to PubChem BioAssay AID1671294:

Biological target: Homeodomain-interacting protein kinase 3 (Homo sapiens) (UniProt Q9H422)
Assay: inhibition of human HIPK3 (YAK1) activity – biochemical, Z'-LYTE, FRET, protease-coupled, direct format, dose response (AID 1671294)
Conditions: recombinant HIPK3

Chain of Homeodomain-interacting protein kinase 3 (Homo sapiens) (Q9H422 whole entry, looked up): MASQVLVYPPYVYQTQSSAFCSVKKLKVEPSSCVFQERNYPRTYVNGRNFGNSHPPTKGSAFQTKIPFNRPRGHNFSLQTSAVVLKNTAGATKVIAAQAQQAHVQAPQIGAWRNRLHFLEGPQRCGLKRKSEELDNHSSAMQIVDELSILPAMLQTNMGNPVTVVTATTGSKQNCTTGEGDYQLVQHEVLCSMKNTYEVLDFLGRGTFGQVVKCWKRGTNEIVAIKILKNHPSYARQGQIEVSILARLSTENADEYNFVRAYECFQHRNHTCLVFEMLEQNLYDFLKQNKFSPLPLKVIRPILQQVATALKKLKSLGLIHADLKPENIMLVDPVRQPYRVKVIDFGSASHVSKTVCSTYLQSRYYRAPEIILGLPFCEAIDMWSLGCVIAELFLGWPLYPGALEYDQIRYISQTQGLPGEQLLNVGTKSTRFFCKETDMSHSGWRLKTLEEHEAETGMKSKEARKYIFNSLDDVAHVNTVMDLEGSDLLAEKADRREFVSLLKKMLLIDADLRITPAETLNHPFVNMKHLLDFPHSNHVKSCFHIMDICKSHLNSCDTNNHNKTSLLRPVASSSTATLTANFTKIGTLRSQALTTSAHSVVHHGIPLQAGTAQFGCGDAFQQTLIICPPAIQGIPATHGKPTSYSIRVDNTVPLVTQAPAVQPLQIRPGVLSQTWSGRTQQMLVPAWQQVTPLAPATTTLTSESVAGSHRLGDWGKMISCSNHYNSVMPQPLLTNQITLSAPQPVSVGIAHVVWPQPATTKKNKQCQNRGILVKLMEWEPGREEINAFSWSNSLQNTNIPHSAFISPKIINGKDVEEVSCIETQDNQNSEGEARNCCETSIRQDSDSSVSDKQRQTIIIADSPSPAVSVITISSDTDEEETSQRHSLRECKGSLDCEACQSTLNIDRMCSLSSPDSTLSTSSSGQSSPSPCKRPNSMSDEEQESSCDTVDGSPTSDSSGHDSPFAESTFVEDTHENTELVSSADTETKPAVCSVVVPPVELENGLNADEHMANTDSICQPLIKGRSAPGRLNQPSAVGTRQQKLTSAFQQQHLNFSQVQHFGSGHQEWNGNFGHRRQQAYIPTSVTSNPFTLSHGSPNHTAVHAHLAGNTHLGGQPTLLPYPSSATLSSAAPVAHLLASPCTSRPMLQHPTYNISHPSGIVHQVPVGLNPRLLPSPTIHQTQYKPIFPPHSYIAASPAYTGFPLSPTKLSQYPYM

IC50: 5.1 µM
Compound: Brc1c(Br)c(Br)c2n[nH]nc2c1Br
